The results in this text go back to ChEMBL document CHEMBL5126561, “New pyrazole-tetrazole hybrid compounds as potent α-amylase and non-enzymatic glycation inhibitors” (Bioorg Med Chem Lett, 2022).

Series [1] addresses Hemoglobin HbA (Homo sapiens, UniProt P68871+P69905). As to the kind of experiment: Inhibition of non-enzymatic glycation in hemoglobin (unknown origin) by spectrophotometric analysis. It counts as protein-complex assay.
Series [2] in a line: Lipophilicity, logP of compound. The settings on record: octanol/water. Format: physicochemical.
In series [3] the target is T1, Alpha amylase (Homo sapiens, UniProt P0DUB6).
T1 sequence (P0DUB6 whole entry): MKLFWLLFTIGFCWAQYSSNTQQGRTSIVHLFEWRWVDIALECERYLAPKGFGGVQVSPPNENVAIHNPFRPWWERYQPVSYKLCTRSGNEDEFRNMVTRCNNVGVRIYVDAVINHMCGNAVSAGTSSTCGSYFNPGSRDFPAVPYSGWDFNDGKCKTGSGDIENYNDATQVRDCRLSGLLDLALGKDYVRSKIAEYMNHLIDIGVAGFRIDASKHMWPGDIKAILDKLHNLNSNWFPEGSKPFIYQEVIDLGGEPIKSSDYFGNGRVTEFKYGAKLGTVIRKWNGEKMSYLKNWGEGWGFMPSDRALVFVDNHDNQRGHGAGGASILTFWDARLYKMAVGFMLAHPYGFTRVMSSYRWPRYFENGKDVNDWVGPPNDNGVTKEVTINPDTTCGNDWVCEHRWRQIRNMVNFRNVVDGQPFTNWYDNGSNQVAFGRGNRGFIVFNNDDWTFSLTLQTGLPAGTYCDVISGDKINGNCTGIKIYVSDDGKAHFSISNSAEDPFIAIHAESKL
As to the kind of experiment: Inhibition of alpha-amylase (unknown origin) assessed as reduction in conversion of starch to glucose preincubated for 10 mins followed by substrate addition and measured after 20 mins by DNSA reagent based spectrophotometric analysis.

For series [4], the target named is Alpha amylase (Homo sapiens) (UniProt P0DUB6). As to the kind of experiment: Potency index, ratio of acarbose IC50 to test compound IC50 for inhibition of alpha-amylase (unknown origin) assessed as reduction in conversion of starch to glucose preincubated for 10 mins followed by substrate addition and measured after 20 mins by DNSA reagent based spectrophotometric analysis. The note with it: time 30.0 min.

In series [5] the target is Hemoglobin HbA (Homo sapiens) (UniProt P69905+P68871). The series is described as follows: Potency index, ratio of gallic acid IC50 to test compound IC50 for inhibition of non-enzymatic glycation in hemoglobin (unknown origin) by spectrophotometric analysis. Format: protein-complex assay.
Sequence of Hemoglobin HbA (Homo sapiens) (P68871 2-147 partner limits assumed): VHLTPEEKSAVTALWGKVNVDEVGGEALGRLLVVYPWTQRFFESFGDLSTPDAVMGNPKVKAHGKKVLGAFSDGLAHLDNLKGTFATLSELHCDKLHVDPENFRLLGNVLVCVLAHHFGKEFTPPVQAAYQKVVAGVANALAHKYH
Sequence of Hemoglobin HbA (Homo sapiens) (P69905 2-142 limits assumed): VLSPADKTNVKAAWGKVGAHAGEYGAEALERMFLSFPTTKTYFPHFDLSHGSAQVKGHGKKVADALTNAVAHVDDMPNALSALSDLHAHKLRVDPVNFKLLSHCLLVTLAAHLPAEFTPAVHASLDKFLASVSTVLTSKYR

Each structure is given as a SMILES string. pIC50: −log10 of the molar value. Converted amounts (≈) assume the structure as drawn.

Sequence of Hemoglobin HbA (P69905 whole entry): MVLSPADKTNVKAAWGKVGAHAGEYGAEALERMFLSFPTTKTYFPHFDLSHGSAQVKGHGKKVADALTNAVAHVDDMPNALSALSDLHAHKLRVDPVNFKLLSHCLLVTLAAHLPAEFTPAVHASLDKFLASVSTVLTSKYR
Sequence of Hemoglobin HbA (P68871 whole entry): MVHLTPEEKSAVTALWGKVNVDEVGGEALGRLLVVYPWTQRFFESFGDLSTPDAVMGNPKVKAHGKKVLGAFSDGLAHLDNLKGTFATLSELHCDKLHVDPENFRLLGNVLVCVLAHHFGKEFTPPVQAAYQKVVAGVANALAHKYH

`Cc1cc(Cn2nnnc2-c2ccccn2)n[nH]1` had a pIC50 in series [1] of 3.45. Besides, in series [2], the logP was found to be 0.86. Further, the IC50 in series [3] is on record as 4.82 10^-3mg/ml. For the same molecule, the Ratio IC50 was determined as 70 in series [4] and 2 in series [5].

As to `CCn1nc(Cn2nnc(-c3ccccn3)n2)cc1C`, the negative-log IC50 (pIC50) in series [1] was 2.60. In addition, the logP in series [2] was determined as 2.08. Further, the half-inhibitory concentration (IC50) in series [3] came out at 0.54 mg/mL (≈ 2.01 mM).

Molecule `Cc1cc(Cn2nnnc2Cc2ccccc2)n[nH]1` had a negative-log IC50 (pIC50) in series [1] of 2.99. This molecule also showed a logP in series [2] of 1.62. Also, in series [3], the half-maximal inhibitory concentration (IC50) came to 1.97 mg/mL (≈ 7.75 mM).

Turning to `CCn1nc(Cn2nnnc2Cc2ccccc2)cc1C`, the pIC50 in series [1] was 2.92. The molecule further had a lipophilicity (logP) in series [2] of 2.1. In series [3], the IC50 was 0.023 mg/mL (≈ 0.0815 mM). Further, the Ratio IC50 in series [4] is 15.

In turn, `Cc1cc(Cn2nnc(Cc3ccccc3)n2)n[nH]1` had a negative logarithm of the IC50 (pIC50) in series [1] of 2.97. The logP in series [2] turned out to be 2.5. Also, in series [3], the IC50 stood at 5.59 mg/mL (≈ 22 mM).

Molecule `CCn1nc(Cn2nnnc2-c2ccccn2)cc1C` had a negative logarithm of the IC50 (pIC50) in series [1] of 3.65. In series [2], this molecule registered a logP of 1.34. For the same molecule, the IC50 in series [3] is 1.13 10^-4mg/ml. Besides, the results for the Ratio IC50 in series [4] and in series [5] were 3010 and 2.8, respectively.

Molecule `Cc1cc(Cn2nnc(-c3ccccn3)n2)n[nH]1` gave a negative-log IC50 (pIC50) in series [1] of 2.71. In series [2], this molecule gave a logP of 1.69. Besides, the IC50 in series [3] was found to be 0.95 mg/mL (≈ 3.94 mM).

In series [1], `CCn1nc(Cn2nnc(Cc3ccccc3)n2)cc1C` gave a pIC50 of 2.71. This molecule also showed a log partition coefficient (logP) in series [2] of 2.88. Further, the IC50 in series [3] is 2.36 mg/mL (≈ 8.36 mM).

In series [1], `O=C(O)c1cc(O)c(O)c(O)c1` [GALLIC ACID] showed a pIC50 of 3.00.

The pIC50 is −log10 of the IC50, conventionally taken in molar units. For orientation: logP means a log measure of how a compound divides between an organic and an aqueous phase. Low values mean lower lipophilicity, high ones higher lipophilicity. For orientation: IC50 means the point on the concentration scale where inhibition reaches its midpoint.
